# Data from PMC4747407 (Oncotarget, 2015).
# pIC50: −log10 of the molar value. Entries after “also recorded” stand apart in the source; their conditions may differ.
# Experiments:
# PARP3 or PARPs 6–16 = assay: 32P-NAD+ auto-PARylation selectivity screen; format: biochemical, human; conditions: 32P-NAD+ auto-PARylation screen
# Experimental: (§1) Samples were analyzed via phosphorimaging.
# DLD-1 cells [1] = assay: Gene expression profiling of Wnt-related genes (TLDA qPCR) in DLD-1 cells; format: cell-based, human; conditions: 30 μmol/L, 72 h
# Experimental: (§2) Gene expression profiling was performed using a custom designed TaqMan® low density array (TLDA). Total RNA was isolated from cell lines using RNeasy Mini Kit (Qiagen) and from xenograft tumor FFPE tissue using RecoverAll Total Nucleic Acid Isolation (Ambion). Human and mouse, real-time qPCR TLDAs (384-well micro fluidic card) were designed with genes selected based on their involvement in Wnt signalling (see supplementary Tables 2 and 3 for lists of genes on TLDAs). cDNA was generated from total RNA using High Capacity cDNA Reverse Transcription kit (Life Technologies) or SuperScript® VILO™ Master Mix (Life Technologies). 100 ng cDNA was combined with TaqMan® Gene Expression Master Mix (Life Technologies) for the cell lines and TaqMan® Advanced FAST Master Mix (Life Technologies) for the xenograft tissue for each port (in duplicate). TLDAs were run based on recommended cycling times for each master mix. Ct values were calculated and imported into GeneData Analyst for further analysis. To calculate the ΔCts, gene expression was normalized to several housekeeping genes. Relative fold change was calculated by comparison to the DMSO or vehicle-treated controls for each sample. A student's t-test was used to calculate P-values and hierarchical clustering used Manhattan distance and complete linkage plotting of selected significant genes to generate heat maps.
# [2] = system: PARP activity in NCI-H460 tumor tissue; assay: Pharmacodynamic PARP inhibition (PAR ELISA) in NCI-H460 tumors; format: in vivo, mouse
# Experimental: (§3) Control group (10 mice) were treated with vehicle (0.5% methyl cellulose in water). Mice were euthanized and tumors were harvested at 1, 6, 12, 24 and 36 hours post treatment (5 mice per treatment per time point). Individual tumors were removed and flash frozen in liquid nitrogen for PAR analysis. PARP inhibition was also evaluated in tumors from NCI-H460 human lung cancer subcutaneous xenografts. Control group animals (24 mice) were treated with vehicle (0.5% methyl cellulose). […] Mice were euthanized and tumors were harvested at 0.25, 1, 6, 12, 24 and 36 hours post-treatment. PAR levels were determined by ELISA using the procedure provided by Trevigen and comparing to a PAR standard curve. Protein concentration of tumor lysates was determined using the BCA assay (Thermo Scientific). Results were converted from pg PAR/assay well to ng PAR/mg protein. Data was pooled from multiple experiments. The percent of control for each time point was calculated by using an average of all control replicates from that experiment.
# [3] = system: MDA-MB-436 human breast cancer xenografts; assay: MDA-MB-436 subcutaneous xenograft model, single agent; format: in vivo, mouse
# Experimental: All studies were performed according to IACUC approved protocols. The general health of mice was monitored daily.
# SW480 cells [4] = assay: Western blot of Wnt/β-catenin pathway proteins in SW480 cells; format: cell-based, human; conditions: 10 μmol/L, 24 h
# Experimental: (§4) SW480, DLD-1 (Wnt-dependent) or RKO (Wnt-independent) cells were plated in 6-well plates and incubated overnight. Cells were treated with E7449, olaparib or XAV939 and incubated for various time periods prior to processing by SDS PAGE and western blot analysis. […] Following binding of appropriate secondary antibodies labeled with IRDye® (LI-COR), image analysis was performed with Image Studio software for the LI-COR Odyssey system (version 2.1.10).
# PARP1 = molecular target: T1, PARP1 (Gallus gallus, UniProt P26446); assay: PARP trapping: western blot of chromatin-bound fraction of MMS-damaged DT40 cells; format: cell-based, avian; conditions: 0.05% MMS, inhibitor 0.1–10 μmol/L, 30 min
# T1 construct: endogenous in cells; host or cells: DT40 cells
# T1 sequence (P26446 whole entry): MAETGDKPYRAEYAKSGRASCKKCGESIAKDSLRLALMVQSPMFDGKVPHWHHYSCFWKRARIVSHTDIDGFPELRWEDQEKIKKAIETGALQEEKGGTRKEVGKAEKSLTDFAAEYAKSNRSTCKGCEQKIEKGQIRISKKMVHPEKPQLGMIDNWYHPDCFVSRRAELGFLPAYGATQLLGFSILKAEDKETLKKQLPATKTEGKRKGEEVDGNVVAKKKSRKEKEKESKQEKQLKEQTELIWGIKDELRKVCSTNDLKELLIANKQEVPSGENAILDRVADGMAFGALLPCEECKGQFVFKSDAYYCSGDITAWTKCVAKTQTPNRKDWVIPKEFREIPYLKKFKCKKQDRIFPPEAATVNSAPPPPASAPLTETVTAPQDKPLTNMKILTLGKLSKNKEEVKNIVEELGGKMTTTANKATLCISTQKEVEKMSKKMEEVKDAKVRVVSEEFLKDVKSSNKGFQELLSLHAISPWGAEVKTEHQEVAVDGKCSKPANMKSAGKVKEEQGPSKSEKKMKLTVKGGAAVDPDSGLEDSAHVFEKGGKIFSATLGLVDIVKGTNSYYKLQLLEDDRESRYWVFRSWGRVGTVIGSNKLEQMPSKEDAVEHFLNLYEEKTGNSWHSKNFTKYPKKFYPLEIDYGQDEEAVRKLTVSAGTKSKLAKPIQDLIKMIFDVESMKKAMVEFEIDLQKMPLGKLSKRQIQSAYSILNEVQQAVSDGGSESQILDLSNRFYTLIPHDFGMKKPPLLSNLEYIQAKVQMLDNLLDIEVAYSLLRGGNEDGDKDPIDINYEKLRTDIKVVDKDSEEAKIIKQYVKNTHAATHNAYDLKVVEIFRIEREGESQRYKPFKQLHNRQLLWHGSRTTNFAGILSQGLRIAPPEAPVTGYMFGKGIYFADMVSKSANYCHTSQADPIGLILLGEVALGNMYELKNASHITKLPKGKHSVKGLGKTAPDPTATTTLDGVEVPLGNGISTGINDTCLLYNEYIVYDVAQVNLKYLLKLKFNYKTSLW
# Experimental: Following binding of appropriate secondary antibodies labeled with IRDye® (LI-COR), image analysis and quantitation of blots was performed with Image Studio software for the LI-COR Odyssey system (version 2.1.10).
# wild type DT40 cells = assay: cells; conditions: DT40, 48 h, read-out: IC50, cell proliferation, wild type DT40 cells
# Experimental: Proliferation assays were performed in a panel of 32 isogenic DT40 cell lines, in which each line was deficient in a distinct DNA repair gene [31]. Cells were seeded and incubated with test compound at various concentrations for 2–3 days (~ 8 cell cycles). […] Each experiment was conducted in duplicate and a minimum of 3 separate experiments were performed. […] For proliferation assays cells were plated at low density in 96 well plates. […] Cell growth was assessed using the CellTiter-Glo® cell viability assay (Promega, Cat# G7573). Each experiment was conducted in duplicate and a minimum of 3 separate experiments were performed.
# DLD-1 cells [5] = assay: Western blot of Wnt/β-catenin pathway proteins in DLD-1 cells; format: cell-based, human; conditions: 24 h
# Experimental: as §4
# [6] = system: MX-1 human breast cancer xenografts; format: in vivo
# Experimental: (§5) All studies were performed according to IACUC approved protocols. The general health of mice was monitored daily. Tumor volume was determined by caliper measurements (mm), using the formula (l x w^2)/2 = mm^3, where l and w refer to the larger and smaller perpendicular dimensions collected at each measurement. Tumor dimensions were recorded twice per week starting when tumors reached an approximate size of 100 to 150 mm^3. Body weights were recorded twice per week and relative body weight was calculated as follows: Relative body weight = (body weight on day of measurement/body weight on first day of treatment).
# Carboplatin combination in MX-1 orthotopic xenografts: female nude mice were implanted with MX-1 cells (0.5 × 10^6) in the thoracic mammary fat pad. Treatment started on day 3 when the average tumor size was approximately 50 mm^3. Carboplatin was administered as a single intravenous dose at 60 mg/kg on day 3 or 4.
# [7] = Gastrointestinal toxicity in preclinical studies; format: in vivo
# [8] = system: NCI-H460 human lung cancer xenografts; assay: NCI-H460 lung cancer xenograft model, antitumor activity; format: in vivo, mouse
# [9] = system: PARP activity in MDA-MB-436 tumor tissue; assay: Pharmacodynamic PARP inhibition (PAR ELISA) in MDA-MB-436 tumor lysates; format: in vivo, mouse
# Experimental: as §3
# SW480 cells [10] = assay: Gene expression profiling of Wnt-related genes (TLDA qPCR) in SW480 cells; format: cell-based, human; conditions: 30 μmol/L, 72 h
# Experimental: as §2
# TNKS1/2 = TNKS1/2 inhibition, summary over the enzyme assays; format: biochemical, human; conditions: range over the assays used
# Experimental: as §1
# P-glycoprotein = system: P-glycoprotein; design: method as in PMID 22246237; conditions: cited from earlier work
# [11] = system: Wnt1 (int-1) mammary tumors; assay: Wnt1 subcutaneous mammary tumor model
# Experimental: as §5
# Tumor pieces cut to approximately 2 mm^3 in size were injected subcutaneously in female nude mice. Treatment was initiated approximately 9–10 days post-implantation of mice.
smiles,measurement,setting,value
"O=c1[nH]nc2c3c(cccc13)N=C(CN1Cc3ccccc3C1)N2 [E7449, 8-(isoindolin-2-ylmethyl)-2,9-dihydro-3H-pyridazino[3,4,5-de]quinazolin-3-one]",inhibitory activity on PARP3 or PARPs 6–16,PARP3 or PARPs 6–16,Significant inhibitory activity was not observed
same,number of Wnt-related genes with significantly altered expression,DLD-1 cells [1],40 genes
same,PARP inhibition in tumor at early time points,"[2]; single dose 1 mg/kg (lowest), 0.25 and 1 hour",significant PARP inhibition
same,duration of complete PARP inhibition,[2]; single dose 100 mg/kg,up to 12 hours
same,time of rebound in PARP activity,[2]; single dose 100 mg/kg,24 h
same,time of at least partial recovery of PARP activity to basal levels,[2]; single dose 1 and 3 mg/kg,≤ 6 h
same,tolerability,[3]; 30 or 100 mg/kg once daily for 28 days,well-tolerated without any significant body weight loss or deaths
same,"antitumor activity, single agent",[3]; 30 or 100 mg/kg oral once daily for 28 days,statistically significant antitumor activity
same,Cyclin D1 protein levels,SW480 cells [4],modest decrease
same,axin2 protein level,SW480 cells [4],significant increase
same,reduction of active (non-phosphorylated) β-catenin level,SW480 cells [4],~ 70%
same,reduction of total β-catenin level,SW480 cells [4],~50%
same,PARP1 trapping onto chromatin,PARP1,binding of PARP1 to chromatin in a dose responsive manner
same,pIC50,wild type DT40 cells,5.49
same,effect on levels of β-catenin,DLD-1 cells [5],robust effect on levels of β-catenin was not observed
same,tolerability of combination with carboplatin,[6]; E7449 100 mg/kg + carboplatin 60 mg/kg,well tolerated with no signs of toxicity or significant body weight loss
same,"antitumor activity, E7449 started 1 day post-carboplatin",[6]; E7449 100 mg/kg once daily + carboplatin 60 mg/kg i.v.,closely resembled that observed with carboplatin alone
same,"antitumor activity, E7449 simultaneously with or prior to carboplatin",[6]; E7449 100 mg/kg once daily + carboplatin 60 mg/kg i.v. single dose,enhanced the antitumor activity of carboplatin
same,"antitumor activity, single agent","[6]; E7449 100 mg/kg oral once daily, carboplatin single i.v. dose 60 mg/kg",inactive; also recorded: No antitumor activity
same,gastrointestinal toxicity,[7],no gastrointestinal toxicity was observed
same,antitumor activity,[8],No antitumor activity
same,time of partial rebound of PARP activity,[9]; single dose 30 mg/kg,≤ 12 h
same,duration of significant PARP inhibition in tumor,[9]; single dose 100 mg/kg,at least 12 hours
same,time of recovery of PARP activity to basal levels,[9]; single dose 100 mg/kg,≤ 24 h
same,number of Wnt-related genes with significantly altered expression,SW480 cells [10],30 genes
same,pIC50,TNKS1/2,6.92 to 7.30
same,P-glycoprotein substrate,P-glycoprotein,not a substrate for P-glycoprotein
same,effect of adding E7449 to E6201 on body weight loss,[11]; E7449 100 mg/kg + E6201 40 mg/kg,did not impact body weight loss
same,"tumor growth, single agent","[11]; E7449 100 mg/kg once daily, Wnt-C59 10 mg/kg once daily, E6201 40 mg/kg i.v. Q4Dx3",did not inhibit tumor growth; also recorded: No antitumor effect
same,"antitumor activity, combination of E7449 and E6201",[11]; E7449 100 mg/kg oral once daily + E6201 40 mg/kg i.v. Q4Dx3,Antitumor activity was enhanced; also recorded: synergistic inhibition of tumor growth
same,"tolerability (body weight loss), single agent","[11]; E7449 100 mg/kg, Wnt-C59 10 mg/kg once daily",well tolerated with minimal toxicity
